In paper PMC6934184, “Selective DNA-PKcs inhibition extends the therapeutic index of localized radiotherapy and chemotherapy” (The Journal of Clinical Investigation, 2019):

Biological target: T1, RPS6KA4 (MSK2) (Homo sapiens, UniProt O75676)
T1 construct: purchased Thermo Fisher Scientific (Life Technologies) SelectScreen
Assay: SelectScreen Z'LYTE
Type: biochemical
Summary of the method: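 Percent values come from Thermo SelectScreen profiling of NU5455, combining activity and binding assays. CSF1R was run in Z'LYTE format at Km app ATP, and CAMK1 in Adapta format with ATP listed at 10.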

T1 sequence (O75676 whole entry): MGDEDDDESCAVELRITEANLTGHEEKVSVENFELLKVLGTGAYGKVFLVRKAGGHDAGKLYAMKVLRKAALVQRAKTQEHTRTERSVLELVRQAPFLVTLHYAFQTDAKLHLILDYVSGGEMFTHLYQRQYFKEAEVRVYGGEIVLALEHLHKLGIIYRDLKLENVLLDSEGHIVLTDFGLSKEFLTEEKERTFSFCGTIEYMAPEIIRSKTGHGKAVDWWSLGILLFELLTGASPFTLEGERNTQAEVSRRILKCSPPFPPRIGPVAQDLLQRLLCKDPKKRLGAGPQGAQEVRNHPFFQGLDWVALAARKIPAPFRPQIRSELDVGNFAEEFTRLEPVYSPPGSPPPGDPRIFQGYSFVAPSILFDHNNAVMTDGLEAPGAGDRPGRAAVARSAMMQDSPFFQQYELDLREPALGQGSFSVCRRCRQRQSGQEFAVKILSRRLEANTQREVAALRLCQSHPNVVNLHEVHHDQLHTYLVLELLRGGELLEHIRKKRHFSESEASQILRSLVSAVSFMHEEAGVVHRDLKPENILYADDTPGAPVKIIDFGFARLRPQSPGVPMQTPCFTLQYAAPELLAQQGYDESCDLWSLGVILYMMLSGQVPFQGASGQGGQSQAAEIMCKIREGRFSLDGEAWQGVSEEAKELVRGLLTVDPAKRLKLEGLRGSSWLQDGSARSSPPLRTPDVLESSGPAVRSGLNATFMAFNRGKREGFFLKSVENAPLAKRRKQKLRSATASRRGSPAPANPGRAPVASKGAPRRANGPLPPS

CN(C(=O)CN1CCOCC1)c1ccc2sc3c(-c4cccc5c(=O)cc(N6CC7CCC(C6)O7)oc45)cccc3c2c1 [NU5455]
inhibition at 1 µM: 4.2%
